One compound from patent US20190390161A1, “CULTURE MEDIUM COMPRISING OLIGOPEPTIDES” (Evonik Degussa GmbH, priority 2017, published 2019) can be followed below.

Molecules are shown by their SMILES.

In data set [1] the test system is antibody producing Chinese Hamster Ovary (CHO) cells (Subclone DG44). Kind of data set: Experiment 3: cell growth (VCD) in TC-42 media, L-valine or L-isoleucine replaced by lysyl dipeptides. In kind it is cell-based. Also on record: Viable cell densities (VCD) / maximum cell densities (max VCD): unit: 10^6 cells/ml. The text has this: The influence of the L-lysine dipeptides on the growth of antibody producing Chinese Hamster Ovary (CHO) cells (Subclone DG44; Life Technologies Cooperation, Carslbad, USA) in comparison to media containing either the corresponding free amino acids or the corresponding L-alanine dipeptides was investigated. For this purpose, the cells were cultivated in a TC-42 media produced by Xell AG, Bielefeld, Germany in which the amino acids provided within the experiments by dipeptides were lacking. The concentrations of these amino acids were adjusted in such a way that, taking into account a complete hydrolysis of the dipeptides into the amino acids, the concentration of all amino acids were the same in all media tested within this experiment.
Starting from a preparatory culture an initial viable cell density (VCD) of 0.3·10^6 cells/ml was adjusted in shaking flasks by adding the test media. After 2-4 days a part of the cell culture was transferred into a new shaking flask and an initial viable cell density (VCD) of 0.3.10^6 cells/ml was adjusted by adding new test media. This was done two times and then the cell growth was followed by measuring the viable cell density (VCD) for up to 24 days.
Experiment 3: Comparison of the Cell Growths obtained with TC-42 media in which L-valine and L-isoleucine, respectively, are replaced by L-lysyl-L-valine and L-lysyl-L-isoleucine, respectively.
For this experiment a TC-42 media produced by Xell AG, Bielefeld, Germany in which L-lysine, L-valine and L-isoleucine were lacking was used. These amino acids and the dipeptides L-lysyl-L-valine and L-lysyl-L-isoleucine, respectively, were then added to the test media in the concentration listed in table 6.

Data set [2] is described as follows: Solubility found for Lys-Xxx dipeptides. The settings on record: as hydrochloride or as acetate (footnotes 6, 7).

`CC[C@H](C)[C@H](NC(=O)[C@@H](N)CCCCN)C(=O)O` [Lys-Ile, L-Lysyl-L-isoleucine]: the “maximum cell densities (max VCD)” value in data set [1] (TC-42 media of table 6) was 10.67. Further, the “Viable cell densities (VCD)” value is 0.44 in data set [1] (Time 0.0, TC-42 media of table 6); 1.78 in data set [1] (Time 2.8, TC-42 media of table 6); 0.48 in data set [1] (Time 3.0, TC-42 media of table 6); 3.36 in data set [1] (Time 6.8, TC-42 media of table 6); 0.39 in data set [1] (Time 6.9, TC-42 media of table 6); 0.60 in data set [1] (Time 7.9, TC-42 media of table 6). In addition, the “Viable cell densities (VCD)” value is 1.04 in data set [1] (Time 8.8, TC-42 media of table 6); 1.73 in data set [1] (Time 9.8, TC-42 media of table 6); 2.73 in data set [1] (Time 10.8, TC-42 media of table 6); 4.62 in data set [1] (Time 11.8, TC-42 media of table 6); 5.77 in data set [1] (Time 12.9, TC-42 media of table 6); 7.19 in data set [1] (Time 13.8, TC-42 media of table 6). For the same compound, the “Viable cell densities (VCD)” value in data set [1] (Time 14.8, TC-42 media of table 6) came out at 9.27; in data set [1] (Time 15.9, TC-42 media of table 6), 9.45; in data set [1] (Time 16.9, TC-42 media of table 6), 9.40; in data set [1] (Time 17.9, TC-42 media of table 6), 10.56; in data set [1] (Time 18.8, TC-42 media of table 6) it was 10.67; in data set [1] (Time 19.8, TC-42 media of table 6) it was 9.18. In addition, in data set [1] (Time 21.0, TC-42 media of table 6), the “Viable cell densities (VCD)” value came to 8.77. For the same compound, in data set [1] (equimolar amounts), the “growth curve and maximum cell density compared with reference medium (FIG. 3)” value was “a slower growth and a lower maximum cell density”. Besides, the “Solubility Lys-Xxx found” value in data set [2] is >500 ^7) g/1000 g solution.
